In patent US11446338B2, “Food, cosmetic and pharmaceutical formulation with an immunomodulatory and protective anti-viral effect” (priority 2018, dated 2022):

Tested on: H1N1 influenza virus (California 2011)
Assay: Prevention of mortality in immunodeficient mice infected with H1N1 influenza virus
Format: in vivo
Conditions: cyclophosphamide-immunodeficient mice, oral 0.2 ml daily, 10 ED90/mouse intranasally

CC(N)C12CC3CC(CC(C3)C1)C2 (centres unmarked) [Rimantadine]
Percentage of surviving animals after experiment, %: 50%
The number of surviving animals after the experiment, n = 10: 5
